{"source": "paper PMC8611018", "about": "“Apelin-13 in septic shock: effective in supporting hemodynamics in sheep but compromised by enzymatic breakdown in patients” (Scientific Reports, 2021)", "key": {"sheep APJ [1]": {"system": "sheep APJ", "assay": "BRET assay for β-arrestin-2 recruitment in HEK293 cells expressing sheep APJ", "format": "cell-based, sheep (Ovis aries)", "details": "BRET2, HEK293 cells with sheep APJ, 30 min stimulation at 37 °C, n = 3", "method": "(§1) BRET experiments were performed as previously described. In brief, HEK293 cells were transfected with plasmids encoding sheep APJ, Gαi1-RlucII ([…]β1 (from cDNA.org) (for the BRET-based Gαi1 activation assay) or encoding sheep APJ-GFP10 and RlucII-β-arrestin2 (for the BRET-based β-arrestin-2 recruitment assay)[50]. To perform the BRET assays, 50,000 cells/well were transferred into white 96-well plates (BD Bioscience, Mississauga, Canada) and incubated at 37 °C overnight. […] After stimulation, 5 μM coelenterazine 400A was added to each well, and the plate was read on a GeniosPro plate reader using the BRET2 filter set (Tecan, Austria). The BRET2 ratio was calculated as […]."}, "sheep APJ [2]": {"system": "sheep APJ", "assay": "BRET assay for Gαi1 activation in HEK293 cells expressing sheep APJ", "format": "cell-based, sheep (Ovis aries)", "details": "BRET2, HEK293 cells with sheep APJ, 5 min stimulation at 37 °C, n = 3", "method": "as §1"}, "[3]": {"assay": "Apelinergic stability in human plasma", "format": "in vitro ADME", "details": "27 μL plasma + 6 μL 1 mM aqueous peptide, 37 °C, 0, 0.5, 1, 2, 4, 6 h, UPLC-MS, mean ± SEM", "method": "(§2) Additional extraction on […] column (Phenomenex, Torrance, CA, USA) with overnight freeze-drying was mandatory for samples used for ELA measurements. […] LS-F25717; […] ELA was quantified using a commercially available ELISA kit (Peninsula Laboratories International; S-1508; CA, USA) with a measurement range of 0-100 ng/mL. […] Proteolytic degradation was stopped by adding 140 μL of 50% acetonitrile, 50% ethanol, and 0.25 mM N, N-dimethylbenzamide at 0, 0.5, 1, 2, 4, or 6 h. […] Next, the reaction mixture was diluted with 80 μL of water and analyzed overnight with an Acquity class H ultra-performance liquid chromatography-mass spectrometry (UPLC-MS) system from Waters (Milford, MA, USA) (column: Acquity UPLC CSH C18, 2.1 mm × 50 mm, packed with 1.7 μm particles). Results were expressed as a percentage of the initial zero-time spike area."}, "[4]": {"system": "sheep with fecal peritonitis-induced septic shock", "assay": "Hemodynamic and renal dose-response to infusion in sheep with fecal peritonitis-induced septic shock", "format": "in vivo", "method": "The day before surgery, autologous stool was retrieved for treatment of the sheep selected for fecal peritonitis induction and mixed overnight in 0.9% normal saline (NS) and 5% D-glucose at 37 °C. The animals were fasted overnight. On the morning of the day of surgery, sheep received premedication to ease animal handling and intubation (i.e., intramuscular injections of 0.1 mg/kg atropine and 10 mg/kg ketamine) before routing to the operating room for insertion of an external jugular vein catheter and administration of a 500 mL bolus of Ringer’s lactate (RL). Sheep were then continuously infused with RL (3 mL/kg/h) and 5% D-glucose (2 mL/kg/h). Tracheal intubation (7–8 Fr) was performed in a caddy under isoflurane (1–2%) mask inhalation and by an anterior approach. Sheep were then placed in the supine position on heating pads before ventilator connection (Aestiva 15, Datex-Ohmeda, USA). […]\n(§3) Baseline hemodynamic parameters and vital sign measurements (HR: heart rate, MAP: mean arterial pressure, SVR: systemic vascular resistance, CVP: central venous pressure, PAOP: pulmonary artery occlusion pressure and wedge pressure), dP/dt max and min, LV end-systolic pressure (LVESP), CO, stroke volume (SV), GEDV, and extravascular lung water (EVLW) were then recorded. Blood temperature, baseline central venous O2 saturation (ScvO2), and arterial blood gas (RapidLab® 348, Siemens Healthcare Diagnostics, Montreal, Qc, Canada) and lactate levels (Lactate Plus, Nova Biomedical, Waltham, MA, USA) were also monitored. A slightly modified sheep SOFA[46] score was calculated after reached shock criteria defining the “shock” time point and before euthanasia named the “final” time points, defined as a MAP below 65 mmHg for level 1 of the cardiovascular system assessment and assuming a constant level 3 of the central nervous system (Glasgow score 6–9) at “shock”. […]\nAfter 2 g/kg autologous stool slurry was injected into both intra-peritoneal (i.p.) tubes, RL and 5% D-glucose infusions were stopped, and all the above parameters were monitored every 30 min. […]"}, "[5]": {"assay": "Apelinergic stability in sheep plasma", "format": "in vitro ADME", "details": "sheep plasma of baseline and shock time points (n = 18); 27 μL plasma + 6 μL 1 mM aqueous peptide, 37 °C, 0 to 6 h, UPLC-MS", "method": "as §2"}, "sheep APJ [6]": {"system": "sheep APJ", "assay": "Competitive radioligand binding with [125I]-(pyr1)Apelin-13 on HEK293 cells expressing sheep APJ", "set-up": "species or system sheep (Ovis aries)", "details": "HEK293 cells with HA-tagged sheep APJ, 0.2 nM [125I]-(pyr1)APLN-13, 1 h at room temperature, n = 3; human APLN-13 compared with human ELA", "from_the_text": "The sequence of the apelin receptor was synthetized with gBlocks Gene Fragments (Integrated DNA Technologies, USA) and subcloned into […]1 (a modified vector in which we replaced the YFP sequence with that for two HA tags) with an NEBuilder HiFi DNA Assembly Cloning Kit (New England Biolabs, MA, USA). The Ovis aries APJ sequence was obtained from the RefSeq database (XM_027979777.1). […] Thermo Scientific Pierce, Canada)[49]. […] The γ emission was quantified using a γ-counter 1470 Wizard from PerkinElmer (Waltham) (80% efficiency). […] All binding data were calculated and plotted using GraphPad Prism 8 (La Jolla, CA) and represent the mean ± SEM of three replicates."}, "healthy sheep": {"system": "healthy sheep", "assay": "Hemodynamic and diuretic dose-response to infusion in healthy sheep", "format": "in vivo", "method": "This study was approved by our institutional ethics review board (CFPA: Comité Facultaire de Protection des Animaux, #023-18BR). Thirty-six male Canadian Arcott sheep (33 ± 3 kg, 3 to 4 months old;) were included in this study according to the Animal Research: Reporting of In Vivo Experiments (ARRIVE) guidelines and received care in compliance with the Canadian Council of Animal Care and National Institutes of Health (NIH) guidelines. Animals were housed for at least 48 h before the experiment in dedicated accommodations and bedding.\nThe day before surgery, autologous stool was retrieved for treatment of the sheep selected for fecal peritonitis induction and mixed overnight in 0.9% normal saline (NS) and 5% D-glucose at 37 °C. The animals were fasted overnight. On the morning of the day of surgery, sheep received premedication to ease animal handling and intubation (i.e., intramuscular injections of 0.1 mg/kg atropine and 10 mg/kg ketamine) before routing to the operating room for insertion of an external jugular vein catheter and administration of a 500 mL bolus of Ringer’s lactate (RL). […]\nas §3"}}, "data": [{"compound": "CSCC[C@H](NC(=O)[C@@H](NC(=O)[C@H](CC(C)C)NC(=O)[C@H](CC(N)=O)NC(=O)[C@@H](NC(=O)[C@@H]1CCCN1C(=O)[C@H](CCCNC(=N)N)NC(=O)[C@@H](N)CCC(N)=O)C(C)C)[C@@H](C)O)C(=O)N[C@@H](CCCNC(=N)N)C(=O)N[C@@H](CCCNC(=N)N)C(=O)N[C@@H](CCCCN)C(=O)N[C@@H](CC(C)C)C(=O)N[C@@H](CCCNC(=N)N)C(=O)N[C@@H](CCCCN)C(=O)N[C@@H](Cc1c[nH]cn1)C(=O)N[C@@H](CC(N)=O)C(=O)N[C@H]1CSSC[C@@H](C(=O)N[C@@H](CCSC)C(=O)N2CCC[C@H]2C(=O)N[C@@H](CC(C)C)C(=O)N[C@@H](Cc2c[nH]cn2)C(=O)N[C@@H](CO)C(=O)N[C@@H](CCCNC(=N)N)C(=O)N[C@H](C(=O)N2CCC[C@H]2C(=O)N[C@@H](Cc2ccccc2)C(=O)N2CCC[C@H]2C(=O)O)C(C)C)NC(=O)[C@H](CCCNC(=N)N)NC(=O)[C@H](CCCNC(=N)N)NC(=O)[C@H](CCC(N)=O)NC(=O)[C@H](CC(C)C)NC1=O", "note": "[ELA, Elabela]", "values": [{"measurement": "potency and efficacy in β-arrestin-2 recruitment, compared with APLN-13", "setting": "sheep APJ [1]", "result": "lower potency and efficacy"}, {"measurement": "potency in Gαi1 activation, compared with APLN-13", "setting": "sheep APJ [2]", "result": "lower potency"}, {"measurement": "half-life", "setting": "[3]; plasma of patients with sepsis/septic shock (n = 22)", "result": "1.15 ± 0.2", "unit": "h"}, {"measurement": "half-life", "setting": "[3]; plasma, plasma of healthy volunteers (n = 10)", "result": "4.3 ± 0.75", "unit": "h"}, {"measurement": "cardiac output (CO)", "setting": "[4]; septic sheep after fluid resuscitation, 2.5 nMol/kg/h, mean ± SEM, n = 6/group", "result": "2.71 ± 0.41", "unit": "L/min"}, {"measurement": "endpoint circulating levels of lactate, cortisol and Tn T", "setting": "[4]; septic sheep, at the end of the last d5 infusion, n = 6/group", "result": "neither APLN-13 nor ELA infusion impacted"}, {"measurement": "FP-induced decreases of monitored hemodynamic parameters", "setting": "[4]; septic sheep, incremental doses 0.025 to 12.5 nmol/kg/h", "result": "failed to alleviate these decreases"}, {"measurement": "plasma stability (residual percentage of non-degraded peptide)", "setting": "[5]", "result": "unaffected"}, {"measurement": "affinity for sheep APJ", "setting": "sheep APJ [6]", "result": "similar"}, {"measurement": "mean arterial pressure (MAP)", "setting": "healthy sheep; 6.25 nMol/kg/h, mean ± SEM, n = 6/group", "result": "65.4 ± 8.1", "unit": "mmHg"}, {"measurement": "systemic vascular resistance", "setting": "healthy sheep; incremental doses 0.025 to 12.5 nmol/kg/h", "result": "not significantly impacted"}, {"measurement": "heart rate (HR) and global end-diastolic volume (GEDV)", "setting": "healthy sheep; incremental doses 0.025 to 12.5 nmol/kg/h, PiCCO", "result": "unchanged"}]}]}
